Patent US20250340885A1, “COMPOSITIONS AND METHODS FOR MODULATING CONDITIONS ASSOCIATED WITH ALTERED ATP8B1 FUNCTION” (CLEVELAND STATE UNIVERSITY, priority 2024, published 2025)
Where a name gives a salt, the structure may show the parent alone. Values belong to the compound of their own block, whether it stands above or below them.

Assays:
human ATP8B1 = target: T1, human ATP8B1 (Homo sapiens, UniProt O43520); experiment: Phospholipid-stimulated ATPase activity of full-length ATP8B1; format: biochemical
T1 sequence (O43520 1-1251): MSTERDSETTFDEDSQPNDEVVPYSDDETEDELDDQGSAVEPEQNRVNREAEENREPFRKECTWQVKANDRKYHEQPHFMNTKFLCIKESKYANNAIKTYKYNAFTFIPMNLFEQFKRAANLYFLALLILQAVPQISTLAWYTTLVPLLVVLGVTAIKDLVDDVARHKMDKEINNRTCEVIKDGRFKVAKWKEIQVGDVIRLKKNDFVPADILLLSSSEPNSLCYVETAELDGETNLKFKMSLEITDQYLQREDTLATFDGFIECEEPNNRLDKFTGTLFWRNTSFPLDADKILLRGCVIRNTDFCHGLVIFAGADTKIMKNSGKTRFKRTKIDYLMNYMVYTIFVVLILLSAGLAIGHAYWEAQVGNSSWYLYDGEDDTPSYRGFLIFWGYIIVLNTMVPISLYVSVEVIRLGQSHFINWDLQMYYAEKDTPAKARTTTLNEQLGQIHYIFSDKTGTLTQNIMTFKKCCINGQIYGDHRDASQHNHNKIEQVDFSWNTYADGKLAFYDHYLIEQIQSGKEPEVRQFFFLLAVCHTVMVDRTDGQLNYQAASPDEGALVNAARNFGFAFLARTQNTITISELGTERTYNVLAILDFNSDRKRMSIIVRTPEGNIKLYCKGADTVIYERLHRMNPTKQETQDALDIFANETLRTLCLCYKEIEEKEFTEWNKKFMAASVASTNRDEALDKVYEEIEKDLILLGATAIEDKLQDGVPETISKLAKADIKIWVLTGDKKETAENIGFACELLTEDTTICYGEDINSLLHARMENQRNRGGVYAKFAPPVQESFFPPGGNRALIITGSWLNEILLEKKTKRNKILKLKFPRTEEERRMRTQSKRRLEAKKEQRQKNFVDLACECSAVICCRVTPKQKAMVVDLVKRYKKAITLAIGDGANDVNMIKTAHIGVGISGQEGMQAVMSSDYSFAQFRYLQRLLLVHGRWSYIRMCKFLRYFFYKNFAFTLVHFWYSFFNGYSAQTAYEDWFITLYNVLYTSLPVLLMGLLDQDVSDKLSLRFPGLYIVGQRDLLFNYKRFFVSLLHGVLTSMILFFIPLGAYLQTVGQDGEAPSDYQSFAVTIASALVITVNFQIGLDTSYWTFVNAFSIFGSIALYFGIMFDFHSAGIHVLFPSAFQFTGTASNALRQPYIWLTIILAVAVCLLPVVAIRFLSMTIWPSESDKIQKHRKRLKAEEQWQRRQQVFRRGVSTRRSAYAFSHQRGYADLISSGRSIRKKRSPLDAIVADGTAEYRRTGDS
Procedure: FIG. 8E is a bar graph showing ATPase activity of ATP8B1 in presence of various lipids (300 µM).
FIG. 8F is a graph showing phospholipid concentration-dependent ATPase activity of ATP8B1. Graph representing data points of three independent experiments, values are mean±SD and fitted by a non-linear dose-dependent curve.
ATP8B1 deletion may affect PIP2 translocation due to changes in membrane properties or by indirectly influencing the activity of other proteins involved in lipid trafficking. To determine if ATP8B1 can directly flip PIP2, a cell-free system was reconstituted. The GST-tagged human ATP8B1 protein was cloned in a baculovirus, followed by transduction of insect Sf9 cells, and expression was confirmed by western blot using anti-GST antibody.
(§1) Next, we utilized reconstituted ATP8B1-proteoliposomes with NBD-labeled phospholipids and sodium dithionite quenching assay to measure phospholipid flip (FIG. 8G), as described before. A marked decrease in the fluorescence intensity of NBD-PIP2 was observed following dithionite quenching of ATP8B1 containing proteoliposomes vs. control liposomes, with ˜12% NBD-PIP2 flip in 5 min, ˜22% NBD-PIP2 flip in 30 min, and ˜27% NBD-PIP2 flipped in 60 min (FIG. 8H, 8I).

[1] = tested on: HepG2 cells (WT or ATP8b1−/−); experiment: Confocal-microscopy-based NBD-phospholipid flip assay with BSA back-exchange; format: cell-based, human; settings: after BSA wash, up to 60 min
Procedure: (§2) FIG. 8A is an image of WT or ATP8b1^−/− HepG2 cells pre-incubated with phospholipase inhibitors at 20° C. were supplemented with NBD-PIP2 followed by incubation for up to 60 min to allow lipid internalization. Cells were subjected to back-exchange with BSA, followed by TBSS wash, and visualization by confocal laser scanning microscopy. FIRE look-up table (ImageJ) was used to highlight intensity variations in PIP2 flip. Images are representative of three independent experiments. Scale bar: 20 μm.
as §2, with “8B” for “8A”, “NBD-PE” for “NBD-PIP2”
FIG. 8C is a graph showing quantification of flipped NBD-PIP2 in WT and ATP8b1^−/− HePG2 cells (N=25 cells, values are mean±SD; **** show p<0.0001 by t-test.
FIG. 8D is a graph showing quantification of flipped NBD-PE in WT and ATP8b1^−/− HePG2 cells (N=25 cells, values are mean±SD; **** show p<0.0001 by t-test. […]

ATP8B1 proteoliposomes = target: T2, ATP8B1 proteoliposomes (Homo sapiens, UniProt O43520); experiment: NBD-phospholipid flip in ATP8B1 proteoliposomes, sodium dithionite quenching assay; format: biochemical; settings: proteoliposomes vs. empty liposomes
T2 construct: The ATPase activity of full-length ATP8B1 was determined in the presence of various phospholipids; GST; made in house; host or cells: Sf9 insect cells (baculovirus)
T2 sequence (O43520 1-1251): T1 sequence (O43520 1-1251)
Procedure: FIG. 8G is a schematic diagram for PIP2 flip assay in ATP8B1 proteoliposomes vs. empty liposomes.
FIG. 8H is a graph showing sodium dithionite quenching of NBD-PIP2 on the outer side of the proteoliposomes vs. empty liposomes over 10 min, Triton-X-100 was used to quench all the remaining NBD-PIP2.
FIG. 8I is a graph showing the percentage PIP2 flipped over time in proteoliposomes vs. empty liposomes±sodium dithionite, ±Triton-X-100, data are from 3 independent experiments, values are mean±SD, **** show p<0.0001 by t-test.
FIG. 8J is a graph showing sodium dithionite quenching of NBD-PE on the outer side of the proteoliposomes vs. empty liposomes over 10 min, Triton-X-100 was used to quench the remaining inner leaflet NBD-PE.
FIG. 8K is a bar graph showing the percentage PE flip over time in proteoliposomes vs. empty liposomes±Sodium dithionite, ±Triton-X-100. […]
as §1

GsdmD = target: T3, GsdmD (Homo sapiens, UniProt P57764); settings: cited from earlier work
T3 sequence (P57764 1-484): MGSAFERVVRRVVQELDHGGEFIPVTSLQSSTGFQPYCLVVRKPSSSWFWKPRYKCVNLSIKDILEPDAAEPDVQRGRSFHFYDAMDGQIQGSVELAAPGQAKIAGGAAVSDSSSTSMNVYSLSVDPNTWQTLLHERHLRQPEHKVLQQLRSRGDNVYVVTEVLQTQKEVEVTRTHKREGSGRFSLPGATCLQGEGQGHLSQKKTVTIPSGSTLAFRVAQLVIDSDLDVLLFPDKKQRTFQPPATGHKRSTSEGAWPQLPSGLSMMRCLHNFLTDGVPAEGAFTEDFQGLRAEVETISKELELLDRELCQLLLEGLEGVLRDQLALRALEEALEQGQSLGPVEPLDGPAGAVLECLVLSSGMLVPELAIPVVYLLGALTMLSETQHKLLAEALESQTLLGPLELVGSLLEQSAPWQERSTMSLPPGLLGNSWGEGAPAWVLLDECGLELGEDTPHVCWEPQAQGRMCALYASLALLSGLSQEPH

EC50 of stimulated activity of ATP8B1 relative to PIP2 (human ATP8B1; higher than PIP2): 1.75 fold
Compound: phosphatidylcholine [PC]

Compound: CCCCCCCC/C=C\CCCCCCCC(=O)OC[C@H](COP(=O)(O)O[C@@H]1[C@H](O)[C@H](O)[C@@H](OP(=O)(O)O)[C@H](OP(=O)(O)O)[C@H]1O)OC(=O)CCCCCCC/C=C\CCCCCCCC [PIP2, phosphatidylinositol-4,5-bisphosphate]
ATPase activity of full-length ATP8B1 (human ATP8B1; 300 μM lipid): notable increase in ATPase activity

NBD-lipid flip (ATP8B1 proteoliposomes): No significant changes
Compound: NBD-PE
flip of NBD-lipid in ATP8B1−/− vs. WT cells [1]: no differences

Compound: COC(=O)/C=C/C(=O)OC [dimethyl fumarate]
effect on GsdmD (GsdmD): promotes succination of GsdmD
